Measurements published in paper PMC6445159, “Resorcinol-, catechol- and saligenin-based bronchodilating β2-agonists as inhibitors of human cholinesterase activity” (Journal of Enzyme Inhibition and Medicinal Chemistry, 2017).
Like-named read-outs stand apart in the source and are kept apart here.

Tests used:
[1] = biological target: T1, atypical BChE (Homo sapiens, UniProt P06276, D98G); test: Reversible inhibition of atypical BChE (Ellman method, Hunter–Downs evaluation); format: biochemical
T1 construct: Human native serum was used as a source of BChE; from tissue; host or cells: human serum
Description: (§1) ATCh was used as a substrate for AChE and PTCh as a substrate for BChE. The reaction mixture contained DTNB (final concentration 0.3 mM), buffer, enzyme suspension, inhibitor (0.5–10 mM) and ATCh or PTCh (0.025–1.0 mM). Inhibition of enzymes was determined by measuring the decrease in enzyme activity in the presence of inhibitors.
(§2) The dissociation constant for an enzyme–inhibitor complex K(I) was evaluated from the impact of substrate concentrations [S] on the degree of inhibition applying the Hunter–Downs equation[17]^,[39]: Ki,app=vi/v0-vi·[I]=K(I)+K(I)/K(S)·[S] where Ki,app is an apparent enzyme-reversible inhibitor complex dissociation constant obtained at a given substrate concentration [S] in the presence of inhibitor concentration [I] and calculated from the enzyme activities v0 and vi measured without inhibitor and in the presence of inhibitor concentration [I], respectively. K(I) is the enzyme-reversible inhibitor complex dissociation constant and can stand for a complex formed at the catalytic site or for a complex formed at the peripheral site of the enzyme. K(S) is the enzyme-substrate dissociation constant that could be approximated to the Michaelis constant or to the enzyme-substrate dissociation constant when two molecules of the substrate are bound to the enzyme.

[2] = biological target: T2, usual BChE (Homo sapiens, UniProt P06276); test: biochemical; format: biochemical; conditions: for inhibition potency higher than other compounds of the same group: usual BChE, versus other resorcinol-, catechol- or saligenin-based compounds
T2 construct: Human native serum was used as a source of BChE; from tissue; host or cells: human serum (donor, IMROH Zagreb)
Description: as §1, §2

[3] = biological target: T3, human AChE (Homo sapiens, UniProt P22303); test: biochemical; format: biochemical
Description: as §1, §2

[4] = biological target: T4, fluoride-resistant BChE (Homo sapiens, UniProt P06276); conditions: substrate PTCh, K(I) ± SE
Description: as §1, §2

[5] = system: β-adrenoceptor; conditions: more potent than (S)-enantiomer; cited from earlier work
[6] = biological target: T3, human AChE; conditions: K(I) ± SE; cited from earlier work
[7] = biological target: T4, fluoride-resistant BChE; conditions: K(I) ± SE; cited from earlier work
[8] = biological target: T1, atypical BChE; conditions: K(I) ± SE; cited from earlier work
[9] = biological target: T2, usual BChE; conditions: K(I) ± SE, cited from earlier work
[10] = enantiomers, substrate PTCh, pH 7.4, 25 °C, K(I) ± SE, read-out: K(I)
[11] = enantiomers, substrate ATCh, pH 7.4, 25 °C, K(I) ± SE, read-out: K(I)
[12] = racemate, 0.1 M phosphate buffer pH 7.4, 25 °C

T4 sequence (P06276 29-602, change not shown): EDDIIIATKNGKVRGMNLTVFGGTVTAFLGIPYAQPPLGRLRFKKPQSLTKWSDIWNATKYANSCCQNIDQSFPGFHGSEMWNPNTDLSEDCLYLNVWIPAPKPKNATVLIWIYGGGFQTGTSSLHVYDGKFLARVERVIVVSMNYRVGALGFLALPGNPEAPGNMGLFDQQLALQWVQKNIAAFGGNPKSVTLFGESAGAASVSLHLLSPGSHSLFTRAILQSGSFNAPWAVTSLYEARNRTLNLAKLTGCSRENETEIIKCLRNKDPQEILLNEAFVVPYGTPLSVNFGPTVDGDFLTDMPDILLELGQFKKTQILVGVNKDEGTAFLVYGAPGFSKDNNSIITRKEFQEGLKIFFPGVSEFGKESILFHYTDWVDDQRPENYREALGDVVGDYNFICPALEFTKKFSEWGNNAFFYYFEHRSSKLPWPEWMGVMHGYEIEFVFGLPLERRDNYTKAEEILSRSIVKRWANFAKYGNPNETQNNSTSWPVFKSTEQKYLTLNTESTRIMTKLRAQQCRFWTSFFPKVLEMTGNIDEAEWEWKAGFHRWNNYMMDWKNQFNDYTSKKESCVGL
T2 sequence (P06276 29-602): as the sequence (P06276 29-602, change not shown) above
T1 sequence (P06276 29-602 D98G): as the sequence (P06276 29-602, change not shown) above, with D70G counted along it
T3 sequence (P22303 32-614): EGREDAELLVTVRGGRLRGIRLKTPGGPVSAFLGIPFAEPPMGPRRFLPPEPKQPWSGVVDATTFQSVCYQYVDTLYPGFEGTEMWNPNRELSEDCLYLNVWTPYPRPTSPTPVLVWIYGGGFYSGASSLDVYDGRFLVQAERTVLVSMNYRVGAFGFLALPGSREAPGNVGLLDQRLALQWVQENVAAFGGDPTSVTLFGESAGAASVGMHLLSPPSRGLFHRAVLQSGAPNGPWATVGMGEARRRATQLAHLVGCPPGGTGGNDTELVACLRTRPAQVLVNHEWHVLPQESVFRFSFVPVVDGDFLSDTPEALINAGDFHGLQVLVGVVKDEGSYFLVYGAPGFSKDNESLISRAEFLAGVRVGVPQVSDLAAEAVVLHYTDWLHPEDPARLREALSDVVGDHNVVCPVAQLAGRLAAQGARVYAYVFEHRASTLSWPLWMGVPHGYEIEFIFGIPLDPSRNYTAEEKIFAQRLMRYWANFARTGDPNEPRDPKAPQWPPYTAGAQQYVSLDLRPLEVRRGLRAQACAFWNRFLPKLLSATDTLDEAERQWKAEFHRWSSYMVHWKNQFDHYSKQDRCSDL

## CC(C)NC[C@H](O)c1ccc(O)c(O)c1 [(R)-isoproterenol]
[1]; [10]
  Ki: 1400 ± 100 µM
[2]; [10]
  Ki: 810 ± 130 µM
[3]; [11]
  Ki: 2000 ± 500 µM
[4]; enantiomers, pH 7.4, 25 °C
  Ki: 1400 ± 200 µM

## CC(C)(C)NC[C@H](O)c1ccc(O)c(CO)c1 [(R)-salbutamol]
[1]; [10]
  Ki: 2300 ± 200 µM
[5]
  potency as β-adrenoceptor agonist relative to (S)-enantiomer: approximately 80 times
[2]; [10]
  Ki: 190 ± 40 µM
[3]; [11]
  Ki: 4000 ± 300 µM
[4]; enantiomers, pH 7.4, 25 °C
  Ki: 300 ± 60 µM

## OCc1cc([C@@H](O)CNCCCCCCOCCCCc2ccccc2)ccc1O [(R)-salmeterol]
[1]; [10]
  Ki: 71 ± 19 µM
[2]; [10]
  Ki: 15 ± 1 µM
[3]; [11]
  Ki: 33 ± 3 µM
[4]; enantiomers, pH 7.4, 25 °C
  Ki: 31 ± 4 µM

## CC(C)(C)NC[C@H](O)c1cc(O)cc(O)c1 [(R)-terbutaline]
[1]; atypical BChE, K(I) racemate versus (R) enantiomer
  stereoselectivity: preference for (R) enantiomer over racemate: 3 fold
[1]; [10]
  Ki: 1000 ± 100 µM
[2]; [10]
  Ki: 110 ± 30 µM
[3]; AChE, K(I) racemate versus (R) enantiomer
  stereoselectivity: preference for (R) enantiomer over racemate: 2 fold
[3]; [11]
  Ki: 2000 ± 300 µM
[4]; enantiomers, pH 7.4, 25 °C
  Ki: 220 ± 50 µM

## CC(C)(C)NC[C@@H](O)c1ccc(O)c(CO)c1 [(S)-salbutamol]
[1]; [10]
  Ki: 1500 ± 200 µM
[2]; [10]
  Ki: 310 ± 50 µM
[3]; [11]
  Ki: 1800 ± 100 µM
[4]; enantiomers, pH 7.4, 25 °C
  Ki: 300 ± 40 µM

## OCc1cc([C@H](O)CNCCCCCCOCCCCc2ccccc2)ccc1O [(S)-salmeterol]
[1]; [10]
  Ki: 67 ± 13 µM
[2]; [10]
  Ki: 15 ± 1 µM
[3]; [11]
  Ki: 28 ± 6 µM
[4]; enantiomers, pH 7.4, 25 °C
  Ki: 20 ± 3 µM

## CNC[C@H](O)c1ccc(O)c(O)c1 [Epinephrine]
[1]; read-out: K(I)
  Ki: 1600 ± 1000 µM
[2]
  Ki: 3700 ± 1200 µM
  selectivity: inhibition of usual BChE more potent than AChE (ratio of K(I) constants): lowest selectivity
[3]
  Ki: 6400 ± 1100 µM
[4]; [12]
  Ki: 3800 ± 1500 µM

## CC(Cc1ccc(O)cc1)NCC(O)c1cc(O)cc(O)c1 (centres unmarked) [Fenoterol]
[1]
  Ki: 630 ± 30 µM
[2]
  Ki: 24 ± 1 µM
[3]
  Ki: 860 ± 50 µM
[4]; [12]
  Ki: 61 ± 17 µM

## CCC(NC(C)C)C(O)c1ccc(O)c(O)c1 (centres unmarked) [Isoetharine]
[1]
  Ki: 260 ± 50 µM
[2]; read-out: K(I)
  Ki: 31 ± 3 µM
[2]
  inhibition potency higher than other compounds of the same group: ≤ 120 times
[3]; AChE, compared to isoproterenol
  higher inhibition potency: 12 fold
[3]; read-out: K(I)
  Ki: 210 ± 40 µM
[4]; [12]
  Ki: 86 ± 4 µM

## CC(C)NCC(O)c1ccc(O)c(O)c1 (centres unmarked) [Isoproterenol]
[6]
  Ki: 2500 ± 1000 µM
[7]
  Ki: 990 ± 120 µM
[3]; AChE, compared to epinephrine
  increase in inhibition potency: 2 fold
[8]
  Ki: 1600 ± 300 µM
[9]; read-out: K(I)
  Ki: 470 ± 210 µM

## CC(C)NCC(O)c1cc(O)cc(O)c1 (centres unmarked) [Metaproterenol]
[7]
  Ki: 870 ± 180 µM
[8]
  Ki: 6100 ± 700 µM
[9]
  Ki: 550 ± 110 µM

## CC(C)(C)NCC(O)c1ccc(O)c(CO)c1 (centres unmarked) [Salbutamol]
[1]
  Ki: 1400 ± 200 µM
[2]
  Ki: 71 ± 6 µM
  selectivity: inhibition of usual BChE more potent than AChE (ratio of K(I) constants): 28 times
[3]
  Ki: 2000 ± 200 µM
[3]; AChE, compared to terbutaline
  higher inhibition potency: two times
[4]; [12]
  Ki: 190 ± 20 µM

## OCc1cc(C(O)CNCCCCCCOCCCCc2ccccc2)ccc1O (centres unmarked) [Salmeterol]
[1]
  Ki: 86 ± 18 µM
[2]
  Ki: 13 ± 1 µM
  selectivity: inhibition of usual BChE more potent than AChE (ratio of K(I) constants): two times
  inhibition potency higher than other compounds of the same group: ≤ 5.5 times
[3]
  Ki: 30 ± 2 µM
[3]; AChE, salmeterol versus salbutamol
  increase in inhibition potency: 67 fold
[4]; [12]
  Ki: 9.8 ± 2.3 µM

## CC(C)(C)NCC(O)c1cc(O)cc(O)c1 (centres unmarked) [Terbutaline]
[7]
  Ki: 300 ± 320 µM
[2]
  selectivity: inhibition of usual BChE more potent than AChE (ratio of K(I) constants): 27 times
[3]; read-out: K(I)
  Ki: 4800 ± 200 µM
[8]
  Ki: 3300 ± 700 µM
[9]
  Ki: 180 ± 150 µM

## (R)-epinephrine
[1]; [10]
  Ki: 12000 ± 2000 µM
[2]; [10]
  Ki: 4700 ± 1800 µM
[3]; [11]
  Ki: 3200 ± 400 µM
